Measured values taken from patent EP1247803A2, “Indolinone compounds suitable for modulation of protein kinases” (Sugen, Inc., priority 1996, dated 1998).

Columns and labels:
MET = MET biochemical kinase assay; design: species or system human; concentration or dose not given beside the values
Excerpt: A met biochemical kinase assay may be performed for met generally as described above for other kinases by substituting that or the other kinases. In particular, ELISA plates are coated with goat anti-rabbit Fc antibodies, which are used to capture commercially available (from Santa Cruz Biotechnology) rabbit polyclonal antibodies to the cytoplasmic domain of human MET. […] The chimeric receptors, or MET, from these lysates are captured on the antibody coated plates. After washing away extraneous proteins, test compounds are added and an in vitro kinase assay is performed by addition of an appropriate kinase buffer (containing ATP, divalent metal ions, etc.). Incorporation of phosphate into the captured receptors is detected with an anti-phosphotyrosine antibody conjugate with horse radish peroxidase using TMB as a substrate for colorimetric detection.

FLK-1 receptor = molecular target: T1, FLK-1 receptor (Mus musculus, UniProt P35918); assay: FLK-1 ELISA (kinase activity of the FLK-1 receptor in FLK-1/NIH3T3 cells, VEGF stimulated); assay type: cell-based; design: concentration or dose not given beside the values
T1 construct: expressed in transfected cells; host or cells: NIH3T3 C7#3
Procedure: An enzyme linked immunosorbent assay (ELISA) was conducted to measure the catalytic activity of the FLK-1 receptor and more specifically, the inhibition or activation of indolinone compounds on the catalytic activity of the FLK-1 receptor. Specifically, the following assay was conducted to measure catalytic activity of the FLK-1 receptor in FLK-1/NIH3T3 cells.
The materials and protocol for the FLK-1 ELISA assay are as described in International Patent Publication No. WO 96/40116, published December 19, 1996 by Tang et al.
Selected compounds were tested in the FLK-1 ELISA assay.
An ELISA assay was conducted to measure the kinase activity of the FLK-1 receptor and more specifically, the inhibition or activation of protein tyrosine kinase activity on the FLK-1 receptor. Specifically, the following assay was conducted to measure kinase activity of the FLK-1 receptor in FLK-1/NIH3T3 cells.
Materials. The following reagents and supplies were used: • a. […] Cappel goat anti-rabbit IgG (catalog no. 55641); • c. PBS (Gibco Catalog No. 450-1300EB); • d. TBSW Buffer (50 mM Tris (pH 7.2), 150 mM NaCl and 0.1% Tween-20); • e. Ethanolamine stock (10% ethanolamine (pH 7.0), stored at 4°C); • f. HNTG buffer (20mM HEPES buffer (pH 7.5), 150mM NaCl, 0.2% Triton X-100, and 10% glycerol); • g. EDTA (0.5 M (pH 7.0) as a 100X stock); • h. Sodium ortho vanadate (0.5 M as a 100X stock); • i. Sodium pyro phosphate (0.2M as a 100X stock); • j. NUNC 96 well V bottom polypropylene plates (Applied Scientific Catalog No. AS-72092); • k. NIH3T3 C7#3 Cells (FLK-1 expressing cells); • l. DMEM with 1X high glucose L Glutamine (catalog No. 11965-050); • m. FBS, Gibco (catalog no. 16000-028); • n. L-glutamine, Gibco (catalog no. 25030-016); • o. VEGF, PeproTech, Inc. (catalog no. 100-20)(kept as 1 µg/100 µl stock in Milli-Q dH2O and stored at -20°C; • p. Affinity purified anti-FLK-1 antiserum which can be obtained or purified as follows: • 1. Prepare a Tresyl-Activated Agarose/Flk-1-D column by incubating 10 ml of Tresyl-Activated Agarose with 20 mg of purified GST-Flk-1-D fusion protein in 100mM sodium bicarbonate (pH 9.6) buffer overnight at 4 °C. • 2. Wash the column once with PBS. • 3. Block the excess sites on the column with 2 M glycine for 2 hours at 4°C. • 4. Wash the column with PBS. • 5. Incubate the column with Rabbit anti-Flk-1D production bleed for 2 hours at 4 °C. • 6. Wash the column with PBS. • 7. Elute antiserum with 100 mM Citric Acid, pH3.0 and neutralize the eluate immediately with 2 M Tris, pH 9.0. • 8. Dialyize the eluate against PBS overnight at 4 °C with 3 changes of buffer (sample to buffer ratio is 1:100). • 9. Adjust the dialyized antiserum to 5% glycerol and store at -80 °C in small aliquotes. • q.
Protocol. The following protocol was used for conducting the assay: • 1. Coat Corning 96-well elisa plates with 1.0µg per well Cappel Anti-rabbit IgG antibody in 0.1M Na2CO3 pH 9.6. Bring final volume to 150 µl per well. Coat plates overnight at 4°C. Plates can be kept up to two weeks when stored at 4°C. • 2. Grow cells in Growth media(DMEM, supplemental with 2.0mM L-Glutamine, 10% FBS) in suitable culture dishes until confluent at 37°C, 5% CO2. • 3. Harvest cells by trypsinization and seed in Corning 25850 polystyrene 96-well roundbottom cell plates, 25.000 cells/well in 200µl of growth media. • 4. Grow cells at least one day at 37°C, 5% CO2. • 5. Wash cells with D-PBS 1X. • 6. Add 200µl/well of starvation media (DMEM, 2.0mM 1-Glutamine, 0.1% FBS). Incubate overnight at 37°C, 5% CO2. • 7. Dilute Compounds/Extracts 1:20 in polypropylene 96 well plates using starvation media. Dilute dimethylsulfoxide 1:20 for use in control wells. • 8. Remove starvation media from 96 well cell culture plates and add 162 µl of fresh starvation media to each well. • 9. Add 18µl of 1:20 diluted Compound/Extract dilution (from step 7) to each well plus the 1:20 dimethylsulfoxide dilution to the control wells (+/- VEGF), for a final dilution of 1:200 after cell stimulation. […]

T1 sequence (P35918 20-1345): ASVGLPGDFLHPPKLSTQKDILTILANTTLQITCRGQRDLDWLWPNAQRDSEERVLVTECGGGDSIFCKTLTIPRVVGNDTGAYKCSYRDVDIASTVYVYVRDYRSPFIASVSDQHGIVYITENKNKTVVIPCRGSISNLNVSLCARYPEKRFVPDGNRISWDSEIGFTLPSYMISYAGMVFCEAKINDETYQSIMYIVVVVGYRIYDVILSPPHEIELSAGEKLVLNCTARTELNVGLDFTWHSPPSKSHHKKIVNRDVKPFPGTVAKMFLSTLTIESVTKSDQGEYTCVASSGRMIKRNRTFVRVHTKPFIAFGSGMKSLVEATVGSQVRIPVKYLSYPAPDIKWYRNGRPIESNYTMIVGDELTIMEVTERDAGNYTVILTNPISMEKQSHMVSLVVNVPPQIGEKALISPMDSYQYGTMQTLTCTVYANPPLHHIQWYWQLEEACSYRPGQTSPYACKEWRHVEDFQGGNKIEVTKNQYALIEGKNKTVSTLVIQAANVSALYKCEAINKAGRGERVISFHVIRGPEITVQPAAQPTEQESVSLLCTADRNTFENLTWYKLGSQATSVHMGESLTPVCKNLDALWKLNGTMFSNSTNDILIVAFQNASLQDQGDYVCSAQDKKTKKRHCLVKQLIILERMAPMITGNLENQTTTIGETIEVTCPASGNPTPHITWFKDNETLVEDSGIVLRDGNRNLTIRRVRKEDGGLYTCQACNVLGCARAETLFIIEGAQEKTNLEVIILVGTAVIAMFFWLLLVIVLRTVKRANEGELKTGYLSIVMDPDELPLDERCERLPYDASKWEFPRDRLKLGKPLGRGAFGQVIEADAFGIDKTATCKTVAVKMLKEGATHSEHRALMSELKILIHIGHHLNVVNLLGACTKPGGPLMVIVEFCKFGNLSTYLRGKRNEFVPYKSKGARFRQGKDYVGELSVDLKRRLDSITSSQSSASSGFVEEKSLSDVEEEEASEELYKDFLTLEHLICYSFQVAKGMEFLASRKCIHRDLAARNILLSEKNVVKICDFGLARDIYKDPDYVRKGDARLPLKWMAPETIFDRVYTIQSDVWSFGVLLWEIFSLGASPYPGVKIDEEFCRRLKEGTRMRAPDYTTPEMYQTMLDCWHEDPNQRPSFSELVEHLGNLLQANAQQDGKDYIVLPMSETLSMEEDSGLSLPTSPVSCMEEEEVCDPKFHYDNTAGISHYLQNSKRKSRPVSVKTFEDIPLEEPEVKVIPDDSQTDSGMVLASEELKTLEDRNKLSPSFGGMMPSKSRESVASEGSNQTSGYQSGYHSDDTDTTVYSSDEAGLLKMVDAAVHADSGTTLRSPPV

SMILES | Met Kinase % Inhibition (MET) [%] | Fik Kinase %Inhibition (FLK-1 receptor) [%]
O=C1Nc2c(Br)cc(Br)cc2C1=CC(c1cccs1)C(F)(F)F (stereo not shown) [10732/A02] | 53.7 | -12.5
CC(C)(C)c1cc(C=C2C(=O)Nc3ccc(I)cc32)cc(Br)c1OCc1ccccc1 [10732/B08] | 64.4 | 8.0
CNS(=O)(=O)c1ccc2c(c1)C(=Cc1c[nH]c3ccc(OC)cc13)C(=O)N2 [10731/D09] | 23.9 | 6.1
CNS(=O)(=O)c1ccc2c(c1)C(=C1C(=O)N(C)c3ccccc31)C(=O)N2 [10731/D10] | 21.1 | 13.0
COc1c(Cl)cc(C=C2C(=O)Nc3ccc(Br)c(C)c32)cc1C(C)(C)C [10732/C09] | 37.9 | 8.0
C=C(C)C1CC=C(C=C2C(=O)Nc3ccc(S(=O)(=O)N4CCOCC4)cc32)CC1 (stereo not shown) [10731/F04] | 17.0 | 24.5
COc1c(C(C)C)cc(C=C2C(=O)Nc3ccc(Br)c(C)c32)cc1C(C)C [10732/C03] | 14.0 | 14.7
CCOC(=O)c1cc(C=C2C(=O)Nc3ccc(S(=O)(=O)NC)cc32)oc1C [10718/D06] | 11.1 | 15.8
CNS(=O)(=O)c1ccc2c(c1)C(=Cc1ccc(OC)c(C(C)(C)C)c1)C(=O)N2 [10732/D05] | 30.2 | 15.7
O=C1Nc2ccc(I)cc2C1=CC(c1cccs1)C(F)(F)F (stereo not shown) [10732/B02] | 78.0 | 2.9
COc1ccc(C=C2C(=O)Nc3ccc(I)cc32)cc1C(C)(C)C [10732/B05] | 71.2 | 2.8
COc1c(I)cc(C=C2C(=O)Nc3ccc(Br)c(C)c32)cc1C(C)(C)C [10732/C11] | 31.9 | 18.2
O=C1Nc2ccc(CCCl)cc2C1=Cc1coc2ccc([N+](=O)[O-])cc2c1=O [10731/G07] | 10.9 | 31.6
COc1c(C(C)C)cc(C=C2C(=O)Nc3ccc(I)cc32)cc1C(C)C [10732/B03] | 58.1 | 8.2
CCOC(=O)c1c(C)[nH]c(C=C2C(=O)Nc3ccc(S(=O)(=O)NC)cc32)c1C [10718/D02] | 32.0 | 13.3
CNS(=O)(=O)c1ccc2c(c1)C(=Cc1coc3ccc(C)cc3c1=O)C(=O)N2 [10731/D06] | 59.7 | 16.1

SMILES | Met Kinase % Inhibition (MET) [%] | Fik Kinase %Inhibition (FLK-1 receptor) [%]
Cc1cc2occ(C=C3C(=O)Nc4ccc(S(=O)(=O)Nc5ccc(C(F)(F)F)cc5)cc43)c(=O)c2cc1C [10731/E03] | 20.7 | -1.4
C=C(C)C1CC=C(C=C2C(=O)Nc3ccc(S(=O)(=O)Nc4ccc(C(F)(F)F)cc4)cc32)CC1 (stereo not shown) [10731/E04] | 55.6 | 23.8
Cc1cc2occ(C=C3C(=O)Nc4ccc(CCCl)cc43)c(=O)c2cc1C [10731/G03] | 33.7 | 12.9
COc1c(I)cc(C=C2C(=O)Nc3c(Br)cc(Br)cc32)cc1C(C)(C)C [10732/A11] | 65.3 | -0.6
O=C1Nc2ccc(S(=O)(=O)Nc3ccc(C(F)(F)F)cc3)cc2C1=Cc1coc2ccc([N+](=O)[O-])cc2c1=O [10731/E07] | 45.9 | 12.6
COc1c(Br)cc(C=C2C(=O)Nc3c(Br)cc(Br)cc32)cc1C(C)(C)C [10732/A07] | 26.1 | -19.8
CC(C)(C)c1cc(C=C2C(=O)Nc3c(Br)cc(Br)cc32)ccc1OCc1ccccc1 [10732/A06] | 5.7 | -0.0
CNS(=O)(=O)c1ccc2c(c1)C(=Cc1c[nH]c(=O)[nH]c1=O)C(=O)N2 [10731/D08] | 44.2 | 25.8
CNS(=O)(=O)c1ccc2c(c1)C(=Cc1ccc(OCc3ccccc3)c(C(C)(C)C)c1)C(=O)N2 [10732/D06] | 24.3 | 16.3
CC(C)(C)c1cc(C=C2C(=O)Nc3c(Br)cc(Br)cc32)cc(Cl)c1OCc1ccccc1 [10732/A10] | 20.3 | 10.2
CNS(=O)(=O)c1ccc2c(c1)C(=Cc1cc(C(C)C)c(Oc3ccccc3)c(C(C)C)c1)C(=O)N2 [10732/D04] | 40.7 | 24.6
CCn1c2ccccc2c2cc(C=C3C(=O)Nc4ccc(S(=O)(=O)Nc5ccc(C(F)(F)F)cc5)cc43)ccc21 [10731/E02] | 49.1 | 11.2
CC(C)c1cc(C=C2C(=O)Nc3ccc(I)cc32)cc(C(C)C)c1Oc1ccccc1 [10732/B04] | 79.5 | -1.3
Cc1ccc2occ(C=C3C(=O)Nc4ccc(S(=O)(=O)N5CCOCC5)cc43)c(=O)c2c1 [10731/F06] | 20.9 | 2.2
Cc1c(Br)ccc2c1C(=Cc1ccc(OCc3ccccc3)c(C(C)(C)C)c1)C(=O)N2 [10732/C06] | 21.6 | 11.8
CNS(=O)(=O)c1ccc2c(c1)C(=Cc1coc3ccc(C(C)C)cc3c1=O)C(=O)N2 [10731/D05] | 92.7 | 32.7
